We go through nine compounds from ChEMBL document CHEMBL1201862, “PubChem BioAssay data set” (2004).

What all share (assay): growth of human tumour cells (NCI), 48 h
Assay [1] relates to DMS-114.
Assay [2] relates to IGROV-1.
For assay [3], the system named is SNB-75.
Assay [4] deals with DMS-273.
Assay [5] has as its system UO-31.
The test system of assay [6] is LOX IMVI.
The subject of assay [7] is OVCAR-8.
Assay [8] relates to SR.
The subject of assay [9] is NCI-H460.
In assay [10] the test system is NCI-H23.
Assay [11] concerns HT-29.
Assay [12] deals with HOP-18.
Assay [13] deals with SNB-19.
Assay [14] relates to UACC-62.
The subject of assay [15] is Malme-3M.
Assay [16] relates to KM-20L2.
The test system of assay [17] is SNB-78.
The test system of assay [18] is HCC 2998.
The test system of assay [19] is T47D.
In assay [20] the test system is NCI/ADR-RES.

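1) Cells in 96-well plates. 2) Compound, 48 h, 5 concentrations. 3) Linear interpolation between surrounding doses. 4) Unreached endpoint = highest concentration. Here, GI50 denotes the concentration required for 50% inhibition of growth.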 Calls of active or inactive are those of the source. Rule as the data show it: active = GI50 up to about 1.1 µM and inactive = higher.

Regarding `CC1=CC2=C(C)C3(CC3)[C@@](C)(O)C(=O)C2=C1`, the GI50 in assay [1] is 0.139 µM (active); in assay [2], 0.29 µM (active); in assay [3], 0.19 µM (active); in [4] it was 0.189 µM (active); in assay [5], 0.19 µM (active); in assay [6], 0.174 µM (active). Moreover, the GI50 in assay [7] is 0.211 µM (active); in [8] it was > 1 µM (active); in assay [9] it was 0.0783 µM (active); in assay [10], 0.0822 µM (active); in assay [11], 0.227 µM (active); in [12] it was 0.27 µM (active). In addition, the GI50 in assay [13] was 0.243 µM (active); in [14], 0.21 µM (active); in assay [15], 0.0933 µM (active); in [16], 0.213 µM (active); in [17], 0.274 µM (active); in [18], 0.178 µM (active).
Regarding `COC1=C(N)C(=O)c2nc(C)ccc2C1=O`, the GI50 in assay [1] was 1.78 µM (inactive); in [2] it was 9.98 µM (inactive); in [3], 2.03 µM (inactive); in assay [4], 1.83 µM (inactive); in assay [5] it was 2.17 µM (inactive); in assay [6] it was 0.826 µM (active). Besides, the GI50 in assay [7] is 3.93 µM (inactive); in assay [8], 2.94 µM (inactive); in [9], 2.08 µM (inactive); in [10], 1.47 µM (inactive); in assay [11], 1.98 µM (inactive); in assay [12] it was 1.98 µM (inactive). The GI50 in assay [13] was 1.91 µM (inactive); in assay [14], 1.75 µM (inactive); in assay [15] it was 1.77 µM (inactive); in assay [16] it was 2.3 µM (inactive); in assay [17] it was 3.52 µM (inactive); in assay [18] it was 4.57 µM (inactive).
Consider `Cn1c2c(c3ccccc31)CCN(CCCCN1CCN(c3ccccc3)CC1)C2=O`, for which the GI50 is 22.1 µM (inactive) in assay [1]; > 76.6 µM (inactive) in assay [2]; 44.8 µM (inactive) in [3]; 31.4 µM (inactive) in assay [4]; 17.3 µM (inactive) in assay [5]; 12.8 µM (inactive) in assay [6]. Moreover, the GI50 was 47.6 µM (inactive) in assay [7]; 8.93 µM (inactive) in [8]; 28.6 µM (inactive) in assay [9]; 35.6 µM (inactive) in assay [10]; 4.16 µM (inactive) in assay [11]; > 31.6 µM (inactive) in assay [12]. In addition, the GI50 in assay [13] is 75.9 µM (inactive); in assay [19], 3.86 µM (inactive); in assay [14] it was 31.8 µM (inactive); in [15], 8.04 µM (inactive); in assay [16], 4.29 µM (inactive); in assay [17] it was > 100 µM (inactive). Moreover, the GI50 in assay [18] is 5.62 µM (inactive).
As to `CN(C)CCNC(=O)c1cccc2ccc(-c3ccc(Br)cc3)nc12`, the GI50 in assay [1] is 2.61 µM (inactive); in [2], 2.96 µM (inactive); in assay [3], 3.27 µM (inactive); in [20] it was 1.8 µM (inactive); in assay [4] it was 1.16 µM (inactive); in assay [5] it was 1.76 µM (inactive). Also, the GI50 in [6] is 1.64 µM (inactive); in [7] it was 1.55 µM (inactive); in assay [9], 0.767 µM (active); in [10] it was 3.47 µM (inactive); in assay [11], 1.61 µM (inactive); in assay [12] it was 1.91 µM (inactive). The GI50 in assay [13] is 4.14 µM (inactive); in assay [14] it was 1.8 µM (inactive); in [15] it was 2.55 µM (inactive); in assay [16], 1.78 µM (inactive); in [17], 8.87 µM (inactive); in [18], 1.85 µM (inactive).
As to `O=C(O)COc1ccc(C(=O)/C(SS/C(C(=O)c2ccc(OCC(=O)O)c(Cl)c2Cl)=C2\C=C(c3ccc(Br)cc3)SS2)=C2/C=C(c3ccc(Br)cc3)SS2)c(Cl)c1Cl`, the GI50 in assay [1] is 1.05 µM (active); in assay [2] it was 4.99 µM (inactive); in assay [3], 7.5 µM (inactive); in [4], 23.8 µM (inactive); in [5], 4.32 µM (inactive); in assay [6], 2.69 µM (inactive). Moreover, the GI50 in [7] is 5.16 µM (inactive); in [9], 19.3 µM (inactive); in assay [10] it was 4.62 µM (inactive); in assay [11], 12.2 µM (inactive); in assay [12], 5.48 µM (inactive); in [13], 5.55 µM (inactive). For the same compound, the GI50 in [19] is 2.3 µM (inactive); in assay [14], 4.55 µM (inactive); in [15], 11.5 µM (inactive); in assay [16], 39.6 µM (inactive); in [17] it was 4.57 µM (inactive); in assay [18], 10.2 µM (inactive).
Turning to `COc1ccc(C2COc3c(ccc(O)c3C)C2)cc1OC` (stereo not drawn), the GI50 in [1] is 24.4 µM (inactive); in assay [2], 130 µM (inactive); in assay [3], 38.1 µM (inactive); in [20] it was 110 µM (inactive); in [4], 57.4 µM (inactive); in assay [5] it was 66.1 µM (inactive). The GI50 is 12.9 µM (inactive) in assay [6]; 113 µM (inactive) in assay [7]; 62.7 µM (inactive) in [9]; 67.8 µM (inactive) in assay [10]; 65.8 µM (inactive) in assay [11]; 24.2 µM (inactive) in [12]. For the same compound, the GI50 was 143 µM (inactive) in assay [13]; 96.2 µM (inactive) in assay [14]; 121 µM (inactive) in assay [15]; 91.6 µM (inactive) in assay [16]; 157 µM (inactive) in assay [17]; 27.9 µM (inactive) in assay [18].
In the case of `COc1ccc(/C(Cl)=C(\C=O)c2ccccc2)cc1OC`, the GI50 in assay [1] was 13.1 µM (inactive); in assay [2] it was > 100 µM (inactive); in assay [3], 11.6 µM (inactive); in assay [4], 29.8 µM (inactive); in assay [5] it was 13.5 µM (inactive); in assay [6] it was 13.2 µM (inactive). For the same compound, the GI50 is 12.7 µM (inactive) in assay [7]; 5.68 µM (inactive) in [8]; 28.8 µM (inactive) in assay [9]; 15.2 µM (inactive) in assay [10]; 28.1 µM (inactive) in assay [11]; 30.1 µM (inactive) in assay [12]. The GI50 in assay [13] is 27.9 µM (inactive); in [14], 7.6 µM (inactive); in assay [15] it was 61 µM (inactive); in [16] it was 44 µM (inactive); in assay [17], 16.7 µM (inactive); in assay [18], 38.5 µM (inactive).
With `CCOc1ccc(NC(=O)C(=O)CC(=O)c2c[n+]([O-])c3cc(C)c(C)cc3[n+]2[O-])cc1`, the GI50 in assay [1], in assay [2], in assay [3], in [4], in [5] and in assay [6] was > 100 µM (inactive) throughout. Moreover, the GI50 in [7], in assay [8], in assay [9], in assay [10], in assay [11] and in assay [12] was > 100 µM (inactive) in each case. The GI50 in assay [13], in assay [14], in assay [15], in assay [16], in assay [17] and in assay [18] was > 100 µM (inactive) each time.
For `CC(=O)OCC1OC(NC(=O)N(CCCl)N=O)C(OC(C)=O)C(OC(C)=O)C1OC(C)=O` (stereo not drawn), the GI50 in assay [1] was > 100 µM (inactive); in assay [2] it was > 100 µM (inactive); in [3] it was 36.1 µM (inactive); in assay [20], > 100 µM (inactive); in assay [4], > 100 µM (inactive); in [5], > 100 µM (inactive). Also, the GI50 is 44.8 µM (inactive) in assay [6]; > 100 µM (inactive) in [7]; > 83.8 µM (inactive) in [9]; > 100 µM (inactive) in [10]; > 100 µM (inactive) in assay [11]; > 100 µM (inactive) in [12]. In addition, the GI50 was > 65.8 µM (inactive) in [13]; 43.9 µM (inactive) in assay [14]; > 100 µM (inactive) in assay [15]; > 100 µM (inactive) in assay [16]; > 100 µM (inactive) in [17]; > 100 µM (inactive) in assay [18].
